Data: PubChem BioAssay (NCI)
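Values below derive from 48-hour exposures of cells grown in 96-well plates, with endpoints linearly interpolated between the two concentrations bracketing the appropriate inhibition level. Definition used: TGI = concentration required for complete inhibition of growth.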

Key:
Assay in all cases: DTP human tumour cell line panel, 48 h
[1] = test system: OVCAR-4 ovarian
[2] = test system: SNB-19 CNS
[3] = test system: SK-OV-3 ovarian
[4] = test system: HOP-62 NSCLC
[5] = test system: MALME-3M melanoma
[6] = test system: CAKI-1 renal
[7] = test system: HS 578T breast
[8] = test system: COLO 205 colon
[9] = test system: NCI-H23 lung
[10] = test system: SNB-75 CNS
[11] = test system: MCF7 breast
[12] = test system: K-562 leukemia
[13] = test system: OVCAR-5 ovarian
[14] = test system: NCI-H226 lung
[15] = test system: PC-3 prostate
[16] = test system: SN12C renal
[17] = test system: HOP-92 NSCLC
[18] = test system: SF-295 CNS
[19] = test system: DU-145 prostate
[20] = test system: M14 melanoma
[21] = test system: EKVX NSCLC
[22] = test system: NCI/ADR-RES ovarian
[23] = test system: UO-31 renal
[24] = test system: SR leukemia
[25] = test system: SK-MEL-28 melanoma
[26] = test system: UACC-62 melanoma
[27] = test system: KM12 colon
[28] = test system: LOX IMVI melanoma
[29] = test system: TK-10 renal
[30] = test system: HL-60(TB) leukemia
[31] = test system: UACC-257 melanoma
[32] = test system: U251 CNS
[33] = test system: MDA-MB-231 breast
[34] = test system: MDA-MB-435
[35] = test system: IGROV1 ovarian
[36] = test system: HCC-2998 colon
[37] = test system: RXF 393 renal
[38] = test system: SF-268 CNS
[39] = test system: SK-MEL-2 melanoma
[40] = test system: MDA-N
[41] = test system: HCT-116 colon
[42] = test system: SF-539 CNS
[43] = test system: A549 NSCLC
[44] = test system: NCI-H460 lung
[45] = test system: ACHN renal
[46] = test system: CCRF-CEM leukemia
[47] = test system: SK-MEL-5 melanoma
[48] = test system: A498 renal
[49] = test system: RPMI-8226 leukemia
[50] = test system: SW-620 colon
[51] = test system: T-47D breast
[52] = test system: HCT-15 colon
[53] = test system: OVCAR-8 ovarian
[54] = test system: 786-0 renal
[55] = test system: BT-549 breast
[56] = test system: OVCAR-3 ovarian
[57] = test system: MOLT-4 leukemia
[58] = test system: HT29 colon
[59] = test system: NCI-H522 lung

With CCOC(=O)c1c2ccccc2n2c(=O)n(-c3ccc(OC)cc3)nnc12 the TGI [1] was > 64 µM, the TGI [2] was > 79.9 µM and the TGI [3] was > 63.9 µM. For the same compound, the TGI [4] was 63 µM, the TGI [5] was > 100 µM and the TGI [6] was > 79.9 µM. The TGI [7] was 55.9 µM, the TGI [8] was > 100 µM and the TGI [9] was > 81.5 µM. The TGI [10] was 35.9 µM, the TGI [11] was > 67.9 µM and the TGI [12] was > 100 µM. The TGI [13] was > 100 µM, the TGI [14] was 87.9 µM and the TGI [15] was > 66.1 µM. For the same compound, the TGI [16] was > 100 µM, the TGI [17] was > 65.7 µM and the TGI [18] was > 62.5 µM. For the same compound, the TGI [19] was > 100 µM, the TGI [20] was > 100 µM and the TGI [21] was > 100 µM. The TGI [22] was > 100 µM, the TGI [23] was > 100 µM and the TGI [24] was > 100 µM. For the same compound, the TGI [25] was > 100 µM, the TGI [26] was 99.6 µM and the TGI [27] was > 100 µM. The TGI [28] was > 100 µM, the TGI [29] was > 84.5 µM and the TGI [30] was > 100 µM. For the same compound, the TGI [31] was > 100 µM, the TGI [32] was > 31.6 µM and the TGI [33] was > 100 µM. For the same compound, the TGI [34] was > 100 µM, the TGI [35] was > 100 µM and the TGI [36] was > 100 µM. The TGI [37] was 43.5 µM, the TGI [38] was 45.7 µM and the TGI [39] was > 100 µM. The TGI [40] was > 100 µM, the TGI [41] was > 100 µM and the TGI [42] was 45.6 µM. The TGI [43] was > 100 µM, the TGI [44] was > 100 µM and the TGI [45] was > 100 µM. The TGI [46] was > 62.4 µM, the TGI [47] was > 100 µM and the TGI [48] was > 100 µM. The TGI [49] was > 91.1 µM, the TGI [50] was > 100 µM and the TGI [51] was 92.7 µM. For the same compound, the TGI [52] was > 100 µM, the TGI [53] was 97.1 µM and the TGI [54] was 51.1 µM. For the same compound, the TGI [55] was > 80.7 µM and the TGI [56] was > 91.1 µM.

With Cc1cc(-c2nc3cc(F)ccc3s2)ccc1N the TGI [2] was > 88.5 µM, the TGI [3] was > 100 µM and the TGI [4] was 72 µM. The TGI [5] was > 100 µM, the TGI [6] was > 94 µM and the TGI [7] was > 82 µM. The TGI [8] was > 67.3 µM, the TGI [9] was > 84.2 µM and the TGI [10] was > 79.1 µM. The TGI [11] was 2.72 µM, the TGI [57] was > 100 µM and the TGI [12] was > 100 µM. The TGI [13] was > 100 µM, the TGI [14] was > 93.6 µM and the TGI [15] was > 76.2 µM. The TGI [16] was > 100 µM, the TGI [17] was > 78 µM and the TGI [18] was > 100 µM. The TGI [19] was > 92.1 µM, the TGI [20] was > 88.8 µM and the TGI [21] was > 85.3 µM. For the same compound, the TGI [22] was > 100 µM, the TGI [23] was 99.4 µM and the TGI [24] was > 100 µM. For the same compound, the TGI [25] was > 100 µM, the TGI [26] was > 100 µM and the TGI [27] was > 100 µM. The TGI [28] was > 100 µM, the TGI [29] was > 4.64 µM and the TGI [30] was > 100 µM. For the same compound, the TGI [31] was > 69.9 µM, the TGI [32] was > 91.7 µM and the TGI [33] was > 73.6 µM. The TGI [34] was > 100 µM, the TGI [35] was > 100 µM and the TGI [58] was > 100 µM. For the same compound, the TGI [36] was > 100 µM, the TGI [37] was 52.4 µM and the TGI [38] was > 90.5 µM. For the same compound, the TGI [39] was > 68.4 µM, the TGI [59] was > 100 µM and the TGI [40] was > 100 µM. The TGI [41] was > 91 µM, the TGI [42] was 46.1 µM and the TGI [43] was > 100 µM. For the same compound, the TGI [44] was > 54.9 µM, the TGI [45] was > 87.3 µM and the TGI [46] was > 100 µM. For the same compound, the TGI [47] was > 82.3 µM, the TGI [48] was 66.8 µM and the TGI [49] was > 100 µM. The TGI [50] was > 100 µM, the TGI [51] was > 100 µM and the TGI [52] was > 100 µM. For the same compound, the TGI [53] was > 100 µM, the TGI [54] was > 79.4 µM and the TGI [55] was > 100 µM. The TGI [56] was > 68 µM.
